Experimental data: patent US20220395553A1, “CXCR4 ANTAGONIST PEPTIDES” (COHBAR, INC., priority 2019, published 2022)
Square brackets hold non-standard residues; d marks the D form. Peptide text beside a SMILES is read from it.

Legend:
[1] = system: A172 human brain glioblastoma cell line; test: Caspase 3/7 activity (Caspase-Glo 3/7) in cultured cells; type: cell-based; conditions: peptide 10 μM, 18-20 hours, relative to 0.1% DMSO control
Description: The effect of the peptides on cell death/survival can be assessed using a caspase-3/7 assay in cultured cells. Peptides were dissolved at 10 mM in DMSO as stock solutions for use at a final concentration of 10 μM. […] Caspase-Glo 3/7 Assay Reagent was purchased from Promega (Madison, Wis.). A172 human brain glioblastoma cell line was purchased from American Type Culture Collection (Manassas, Va.). A172 cells were grown in DMEM supplemented with 10% FBS with 100 IU/ml penicillin and 100 μg/ml streptomycin. Cultures were maintained at 37° C. in a humidified atmosphere of 5% CO2/95% air. A172 cells were seeded at 8,000 cells per well on 96-well plates. […] Caspase 3/7 activity was determined using a Caspase-Glo 3/7 Assay kit (Promega) according to the manufacturer's instructions. Luminescence for each sample well on the plate was measured using a Cytation 3 plate reader (BioTek, Winooski, Vt.). Activity was calculated relative to 0.1% DMSO control.

[2] = system: 3T3-L1 Mouse Adipocytes; test: Free fatty acid levels in cultured mouse adipocytes; type: cell-based; conditions: peptide 10 μM, 20-22 hours then 3 hours with 1 nM isoproterenol; relative to isoproterenol treated cells
Description: The effect of the peptides on fatty acid metabolism can be assessed using an assay of free fatty acid levels in cultured cells such as mouse adipocytes. Peptides were initially prepared as 10 mM stock in DMSO and used at a final concentration of 10 μM (0.1% DMSO). […] Mouse 3T3-L1 cells purchased from ZenBio were seeded at 3,000 cells per well in 96-well plates in Pre-adipocyte Medium (Zen-Bio) and grown to confluence at 37° C. in a humidified atmosphere of 5% CO2/95% air. Two days after confluence, cells were placed in Adipocyte Differentiation Medium (Zen-Bio) and cultured for three additional days at 37° C. in a humidified atmosphere of 5% CO2/95% air. The culture media was then replaced with Adipocyte Maintenance Medium (Zen-Bio) and the cells maintained for an additional 9-12 days at 37° C. in a humidified atmosphere of 5% CO2/95% air with partial medium replacement every other day. Following 12-15 days of differentiation, test peptides were added at a final concentration of 10 μM in 0.1% DMSO and incubated for 20-22 hours in Adipocyte Maintenance Medium at 37° C. in a humidified atmosphere of 5% CO2/95% air. After 20-22 hours, 1 nM isoproterenol was added to all wells except untreated controls and test peptides were replenished. Insulin at 100 nM was added to control wells. Cells were incubated for 3 hours in Assay Buffer (Zen-Bio) at 37° C. in a humidified atmosphere of 5% CO2/95% air. Free fatty acid concentrations in the media were determined using a Free Fatty Acid Assay kit (Zen-Bio) according to the manufacturer's instructions using a Cytation 3 plate reader at 540 nm (BioTek, Winooski, Vt.). Absorbance values were corrected for untreated background and expressed relative to isoproterenol treated cells. Treatment with isoproterenol (1 nM) alone was used as the free fatty acid level stimulatory control. The relative standard deviation of the isoproterenol control was <10%. […] Free fatty acid levels for insulin (100 nM) treatment were <5% of the isoproterenol control value.

[3] = system: Rat H-4-II-E Cells; test: Cell proliferation, BrdU incorporation; type: cell-based; conditions: peptide 10 μM, 18-20 hours, relative to 0.1% DMSO control
Description: The effect of the peptides on cell proliferation can be assessed using an assay of BrdU incorporation in cultured cells. Peptides were initially prepared as 10 mM stock in DMSO and tested at a final concentration of 10 μM (0.1% DMSO). BrdU Cell Proliferation Assay kit was purchased from Cell Signaling Technology. H-4-II-E rat liver hepatoma cell line was purchased from American Type Culture Collection (Manassas, Va.). H-4-II-E cells were grown in DMEM supplemented with 10% FBS with 100 IU/ml penicillin and 100 μg/ml streptomycin. Cultures were maintained at 37° C. in a humidified atmosphere of 5% CO2/95% air. H-4-II-E cells were seeded at 20,000 cells per well on 96-well plates. The next day cells were incubated with test peptides at 10 μM in 0.1% DMSO and maintained at 37° C. in a humidified atmosphere of 5% CO2/95% air for 18-20 hours. Cell proliferation was determined using a BrdU Cell Proliferation Assay kit (Cell Signaling Technology) according to the manufacturer's instructions. Absorption for each sample well on the plate was measured using a Cytation 3 plate reader at 450 nm (BioTek, Winooski, Vt.). Activity was calculated relative to 0.1% DMSO untreated control.

[4] = system: U937 cells; test: CXCL12 mediated cell migration, U937 cells; type: cell-based, human; conditions: peptides at 10 μM (also stated 1 μM), 100 nM CXCL12, 4 hours
Description: Peptides were initially prepared as 1 mM stock in H2O and tested at a final concentration of 1 μM. […] U937 cells were resuspended in serum free media containing 0.5% bovine serum albumin (RPMI+GlutaMax (Gibco/Thermo Fisher Scientific, Gaithersburg, Md.)) at density of 5×10^6 cells/ml. […] Following the 4 hour incubation period the filter inserts were carefully removed and the migration of cells across the filter into the bottom chamber (receiver wells) was determined by measuring ATP levels using Cell TiterGlo 2.0, according to manufacturer's instructions (Promega, Madison, Wis.); luminescence measured using a Cytation 3 plate reader (BioTek, Winooski, Vt.).

[5] = system: Jurkat cells; test: CXCL12 mediated cell migration, Jurkat cells; type: cell-based, human; conditions: 1.1 μM test article, 100 ng/ml CXCL12, 1 hour
In short: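 Jurkat cells in serum-free RPMI with 0.5% BSA, 250,000 per upper chamber of a 5 μm Transwell, with peptides at 1.1 μM final. Migration toward CXCL12 ran 1 h at 37 °C in 5% CO2. Cells reaching the lower chamber quantified by ATP luminescence (CellTiter-Glo 2.0).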

| SMILES | Caspase 3/7 Activity, Percent of Control Activity [1] | Free Fatty Acid Levels, MEAN % ISO [2] | BrdU Incorporation, Percent of Control [3] | Percent Inhibition of CXCL12 Mediated Migration [4] | Percent Inhibition of CXCL12 Mediated Migration (1.1 μM Test Article) [5] |
| --- | --- | --- | --- | --- | --- |
| CSCC[C@H](N)C(=O)N[C@@H](CC(C)C)C(=O)N[C@@H](CCCNC(=N)N)C(=O)N[C@@H](CCCNC(=N)N)C(=O)N[C@@H](Cc1ccc(O)cc1)C(=O)N[C@@H](Cc1c[nH]cn1)C(=O)N[C@@H](Cc1c[nH]cn1)C(=O)N[C@@H](CO)C(=O)N[C@H](C(=O)N[C@@H](CCCNC(=N)N)C(=O)N[C@@H](CO)C(=O)N[C@@H](CO)C(=O)N[C@@H](CC(C)C)C(=O)N[C@@H](CCCNC(=N)N)C(=O)N1CCC[C@H]1C(=O)N[C@@H](Cc1ccc(O)cc1)C(=O)N[C@H](C(=O)N[C@@H](CCCCN)C(=O)O)[C@@H](C)O)C(C)C [compound 2] (H-MLRRYHHSVRSSLRPYTK-OH; N-terminus and C-terminus assumed) | 96.7% | 83.2% | 123.6% | 58% | 4% |
| CC(C)C[C@H](NC(=O)[C@H](CO)NC(=O)[C@H](CO)NC(=O)[C@H](CCCNC(=N)N)NC(=O)[C@@H](NC(=O)[C@H](CO)NC(=O)[C@H](Cc1c[nH]cn1)NC(=O)[C@H](Cc1c[nH]cn1)NC(=O)[C@H](Cc1ccc(O)cc1)NC(=O)[C@H](CCCNC(=N)N)NC(=O)[C@H](CCCNC(=N)N)NC(=O)[C@@H](N)CC(C)C)C(C)C)C(=O)N[C@@H](CCCNC(=N)N)C(=O)N1CCC[C@H]1C(=O)N[C@@H](Cc1ccc(O)cc1)C(=O)N[C@H](C(=O)N[C@@H](CCCCN)C(=O)O)[C@@H](C)O [compound 3] (H-LRRYHHSVRSSLRPYTK-OH; N-terminus and C-terminus assumed) | 121.4% | 82.0% | 130.3% | 101% | 66% |
| CC(C)C[C@H](NC(=O)[C@H](CO)NC(=O)[C@H](CO)NC(=O)[C@H](CCCNC(=N)N)NC(=O)[C@@H](NC(=O)[C@H](CO)NC(=O)[C@H](Cc1c[nH]cn1)NC(=O)[C@H](Cc1c[nH]cn1)NC(=O)[C@H](Cc1ccc(O)cc1)NC(=O)[C@H](CCCNC(=N)N)NC(=O)[C@H](CCC(=O)O)NC(=O)[C@@H](N)CC(C)C)C(C)C)C(=O)N[C@@H](CCCNC(=N)N)C(=O)N1CCC[C@H]1C(=O)N[C@@H](Cc1ccc(O)cc1)C(=O)N[C@H](C(=O)N[C@@H](CCCCN)C(=O)O)[C@@H](C)O [compound 4] (H-LERYHHSVRSSLRPYTK-OH; N-terminus and C-terminus assumed) | 107.7% | 92.3% | 114.4% | 98% | 77% |
| CC(C)C[C@H](NC(=O)[C@H](CO)NC(=O)[C@H](CO)NC(=O)[C@H](CCCNC(=N)N)NC(=O)[C@@H](C)NC(=O)[C@H](CO)NC(=O)[C@H](Cc1c[nH]cn1)NC(=O)[C@H](Cc1c[nH]cn1)NC(=O)[C@H](Cc1ccc(O)cc1)NC(=O)[C@H](CCCNC(=N)N)NC(=O)[C@H](CCC(=O)O)NC(=O)[C@@H](N)CC(C)C)C(=O)N[C@@H](CCCNC(=N)N)C(=O)N1CCC[C@H]1C(=O)N[C@@H](Cc1ccc(O)cc1)C(=O)N[C@H](C(=O)O)[C@@H](C)O [compound 5] (H-LERYHHS[dA]RSSLRPYT-OH; N-terminus and C-terminus assumed) | 104.7% | 86.9% | 131.1% | 86% | 46% |
